The values that follow come from patent publication US4472388A, “N-Methanesulfonic acid derivatives of 3-O-demethylistamycin B and production thereof” (Zaidan Hojin Biseibutsu Kagaku Kenkyu Kai, priority 1982, dated 1984).

The test system of data set [1] is Staphylococcus aureus Ap01. The data set can be described thus: Minimum inhibitory concentration, serial dilution on Mueller-Hinton agar. As to conditions: 37° C., 17 hours. It counts as cell-based. An excerpt:
(§1) Minimum inhibitory concentrations (mcg/ml) of the parent 3-O-demethylistamycin B were also estimated in the same manner for the comparison purpose and also are shown in Table 1.

Data set [2] concerns Providencia Pv 16. The description is as above. As to conditions: 17 hours; for Minimum inhibitory concentration: 37° C. It counts as cell-based.
Description: as §1

The test system of data set [3] is Pseudomonas aeruginosa A3. The data set is described as above. It counts as cell-based. As to conditions: for Minimum inhibitory concentration: Pseudomonas aeruginosa A3, Mueller-Hinton agar, 37° C., 17 hours.
Description: as §1

Data set [4] relates to Serratia marcescens. Described as above. In kind it is cell-based. The note with it: for Minimum inhibitory concentration: Mueller-Hinton agar, 37° C., 17 hours.
Description: as §1

Data set [5] relates to Pseudomonas aeruginosa TI-13. Described as above. It counts as cell-based. The note with it: for Minimum inhibitory concentration: Pseudomonas aeruginosa TI-13, Mueller-Hinton agar, 37° C., 17 hours.
Description: as §1

The test system of data set [6] is Staphylococcus aureus 209P. Described as above. The note with it: 37° C., 17 hours. It counts as cell-based.
Description: as §1

The subject of data set [7] is Escherichia coli JR66/W677. The description is as above. In kind it is cell-based. The note with it: for Minimum inhibitory concentration: Escherichia coli JR66/W677, Mueller-Hinton agar, 37° C., 17 hours.
Description: as §1

Data set [8] concerns Pseudomonas aeruginosa GN315. The description is as above. In kind it is cell-based. As to conditions: for Minimum inhibitory concentration: Pseudomonas aeruginosa GN315, Mueller-Hinton agar, 37° C., 17 hours.
Description: as §1

For data set [9], the system named is Pseudomonas aeruginosa H9. Described as above. In kind it is cell-based. The note with it: 37° C., 17 hours.
Description: as §1

Data set [10] has as its system Escherichia coli K-12 R5. Described as above. It counts as cell-based.
Description: as §1

The subject of data set [11] is Escherichia coli K-12 LA290 R55. The description is as above. In kind it is cell-based.
Description: as §1

Data set [12] relates to Escherichia coli K-12 C600 R135. The data set is described as above. In kind it is cell-based. As to conditions: K12C600R135, 37° C., 17 hours.
Description: as §1

Data set [13] relates to Escherichia coli K-12 ML1629. The data set is described as above. It counts as cell-based. As to conditions: K12ML1629, 37° C., 17 hours.
Description: as §1

Data set [14] deals with Escherichia coli JR225. Described as above. It counts as cell-based. As to conditions: JR225, 17 h, read-out: Minimum inhibitory concentration.
Description: as §1

Data set [15] has as its system Escherichia coli K-12. The data set is described as above. As to conditions: K12, 37° C., 17 hours. It counts as cell-based.
Description: as §1

Data set [16] deals with gram-negative and gram-positive bacteria, including Pseudomonas aeruginosa. The note with it: cited earlier filings; cited from earlier work.
Data set [17] can be described thus: Acute toxicity, intravenous administration in mice. It counts as in vivo. The note with it: ICR mice. As to the method: A test compound was diissolved in 0.25 ml of a physiological saline solution and the solution of the test compound so prepared was intravenously administered into a series of mouse groups each consisting of six mice (ICR strain, adult female, body weight 20 g±0.5 g) as the test animal, […] Acute toxicity of 3-O-demethylistamycin B was also estimated in the same manner as above for the comparison purpose. […]

In brackets after ≈: the same amount, converted by molar mass.

As a reminder, the LD50 is the dose expected to kill half of the subjects tested. The low end stands for a more toxic substance, the high end for a less toxic substance.

For the compound “3-O-demethylistamycin B-tri-N-methanesulfonic acid sodium salt [Compound (3)]”, the Minimum inhibitory concentration in data set [1] is 1.56 µg/mL; in [2] it was 3.13 µg/mL; in data set [3], 0.78 µg/mL; in data set [4], 12.5 µg/mL; in [5], 6.25 µg/mL; in data set [6], 0.78 µg/mL. For the same compound, the results for the Minimum inhibitory concentration in [7], in data set [8] and in data set [9] were 6.25 µg/mL, 12.5 µg/mL and 12.5 µg/mL, respectively.

Consider “3-O-demethylistamycin B-tetra-N-methanesulfonic acid sodium salt [Compound (4)]”, for which the Minimum inhibitory concentration turned out to be 3.13 µg/mL in data set [1]; 6.25 µg/mL in [2]; 1.56 µg/mL in data set [3]; 25 µg/mL in data set [10] (Escherichia coli K-12 R5, Mueller-Hinton agar, 37° C., 17 hours); 25 µg/mL in [4]; 25 µg/mL in data set [5]. In addition, the Minimum inhibitory concentration in data set [6] amounted to 1.56 µg/mL; in data set [11] (Escherichia coli K-12 LA290 R55, Mueller-Hinton agar, 37° C., 17 hours), 12.5 µg/mL; in data set [7] it was 25 µg/mL; in data set [8] it was 25 µg/mL; in data set [9] it was 25 µg/mL.

Take “3-O-demethylistamycin B-mono-N-methanesulfonic acid sodium salt [Compound (1)]”: the Minimum inhibitory concentration in data set [1] was determined as 1.56 µg/mL; in [2] it was 3.13 µg/mL; in [3], 0.78 µg/mL; in data set [4], 6.25 µg/mL; in [5] it was 6.25 µg/mL; in data set [6], 0.78 µg/mL. Also, the Minimum inhibitory concentration worked out at 6.25 µg/mL in data set [7], 12.5 µg/mL in [8] and 12.5 µg/mL in data set [9].

As for `CNCC1CCC(N)C(OC2C(N)CC(O)C(N(C)C(=O)CN)C2O)O1` (centres unmarked) [3-O-demethylistamycin B], the MIC in data set [1] turned out to be 0.39 µg/mL (≈ 1.04 µM); in [2] (PV16, 37° C.), 0.78 µg/mL (≈ 2.08 µM); in data set [3] (Pseudomonas aeruginosa, A3, 17 h, read-out: Minimum inhibitory concentration), 0.2 µg/mL (≈ 0.533 µM); in data set [12], 1.56 µg/mL (≈ 4.15 µM); in [10] (Escherichia coli, K12R5, 17 h, read-out: Minimum inhibitory concentration), 3.13 µg/mL (≈ 8.34 µM); in data set [4] (17 h, read-out: Minimum inhibitory concentration) it was 1.56 µg/mL (≈ 4.15 µM). For the same compound, the MIC was determined as 6.25 µg/mL (≈ 16.6 µM) in [5] (Pseudomonas aeruginosa, TI13, 17 h, read-out: Minimum inhibitory concentration); 0.39 µg/mL (≈ 1.04 µM) in data set [6]; 1.56 µg/mL (≈ 4.15 µM) in data set [13]; 0.78 µg/mL (≈ 2.08 µM) in [14]; 0.78 µg/mL (≈ 2.08 µM) in [11] (Escherichia coli, K12LA290R55, 17 h, read-out: Minimum inhibitory concentration); 1.56 µg/mL (≈ 4.15 µM) in data set [7] (Escherichia coli, JR66/W677, 17 h, read-out: Minimum inhibitory concentration). Further, the MIC in [15] was 0.78 µg/mL (≈ 2.08 µM); in [8] (Pseudomonas aeruginosa, GN315, 17 h, read-out: Minimum inhibitory concentration) it was 6.25 µg/mL (≈ 16.6 µM); in data set [9], 12.5 µg/mL (≈ 33.3 µM). Besides, in [16], the antibacterial activity entry is reported as “high antibacterial activity”. The death of mice result in data set [17] (320 mg/kg, within 24 hours) is listed as “all mice died within 24 hours”. Also, the LD50 in data set [17] (mouse, in vivo, adult female) fell in the range of 160 to 320 mg/kg.

For “3-O-demethylistamycin B-di-N-methanesulfonic acid sodium salt [Compound (2)]”, the Minimum inhibitory concentration is 1.56 µg/mL in data set [1]; 3.13 µg/mL in data set [2]; 3.13 µg/mL in [3]; 12.5 µg/mL in data set [4]; 6.25 µg/mL in data set [5]; 1.56 µg/mL in data set [6]. Further, the Minimum inhibitory concentration in data set [7] amounted to 6.25 µg/mL; in data set [8] it was 6.25 µg/mL; in [9], 12.5 µg/mL.
